Patent US9334264B2, “NAMPT inhibitors” (AbbVie Inc., priority 2012, dated 2016)

What was measured:
[1] = target: NAMPT (human, recombinant, C-terminally His-tagged) (Homo sapiens, UniProt P43490); experiment: Time-Resolved Fluorescence Resonance Energy Transfer (TR-FRET) Binding Assay of NAMPT; details: absence of substrates; 6.8 nM NAMPT, 200 nM probe, equilibrated 3 hours
Procedure: Determination of the utility of compounds having Formula (I) as binders to and inhibitors of NAMPT was performed using Time-Resolved Fluorescence Resonance Energy Transfer (TR-FRET) binding assays.
Time-Resolved Fluorescence Resonance Energy Transfer (TR-FRET) Binding Assay of NAMPT
Test compounds were serially diluted (typically 11 half log dilutions) in neat DMSO to 50× final concentrations prior to dilution with assay buffer (50 mM HEPES (NaOH), pH 7.5, 100 mM NaCl, 10 mM MgCl2, 1 mM DTT, 1% Glycerol) to 3× and 6% DMSO. Six μL were transferred to 384-well low-volume plates (Owens Corning #3673). To this, 12 μL of a 1.5× solution containing enzyme, probe and antibody were added. Final concentrations in the 18 μL reactions were 1× assay buffer, 2% DMSO, 6.8 nM NAMPT (human, recombinant, C-terminally His-tagged), 200 nM probe (a potent nicotinamide-competitive inhibitor conjugated to Oregon Green 488) and 1 nM Tb-anti-His antibody (Invitrogen #PV5895). Reactions were equilibrated at room temperature for 3 hours prior to reading on an Envision multi-label plate reader (Perkin Elmer; Ex=337 nm, Em=520 and 495 nm). Time-resolved FRET ratios (Em520/Em495) were normalized to controls, plotted as a function of compound concentration and fit with the four-parameter logistic equation to determine IC50s.

[2] = target: NAMPT (Homo sapiens, UniProt P43490); experiment: Time-Resolved Fluorescence Resonance Energy Transfer (TR-FRET) Binding Assay of NAMPT with PRPP; details: 200 μM PRPP and 2.5 mM ATP; 2 nM NAMPT, 2 nM probe, equilibrated 16 hours
NAMPT, sequence (P43490 whole entry): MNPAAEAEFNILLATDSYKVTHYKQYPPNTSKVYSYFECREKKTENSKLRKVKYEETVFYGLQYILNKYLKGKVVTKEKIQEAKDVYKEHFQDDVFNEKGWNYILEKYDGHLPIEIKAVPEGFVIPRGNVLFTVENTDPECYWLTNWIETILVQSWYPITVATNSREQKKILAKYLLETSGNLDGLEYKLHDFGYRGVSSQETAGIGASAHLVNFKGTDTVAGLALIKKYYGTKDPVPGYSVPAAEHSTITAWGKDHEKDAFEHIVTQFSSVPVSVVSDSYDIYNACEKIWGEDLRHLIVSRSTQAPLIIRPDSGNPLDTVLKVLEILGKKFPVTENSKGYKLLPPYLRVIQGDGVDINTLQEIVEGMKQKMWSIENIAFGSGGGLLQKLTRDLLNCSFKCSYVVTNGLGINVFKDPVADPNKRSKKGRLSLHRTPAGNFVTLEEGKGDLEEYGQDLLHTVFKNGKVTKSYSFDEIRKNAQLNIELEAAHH
Procedure: Time-Resolved Fluorescence Resonance Energy Transfer (TR-FRET) Binding Assay of NAMPT with PRPP
Compound handling and data processing were identical to the assay in the absence of substrates (above). Final concentrations were 1× assay buffer, 2% DMSO, 2 nM NAMPT, 2 nM probe, 1 nM Tb-anti-His antibody (Invitrogen #PV5895), 200 μM PRPP and 2.5 mM ATP. Reactions were equilibrated for 16 hours prior to measurement to allow for potential enzymatic modification of test compounds.

NAMPT (human, recombinant, C-terminally His-tagged), sequence (P43490 whole entry): as above

| Compound | IC50 [1] [nM] | IC50 [2] [nM] |
| --- | --- | --- |
| COCCC(=O)N(CCN1CCOC1=O)c1ncc(C(=O)NCCCn2ccnc2)s1 [Example 198, N-[3-(1H-imidazol-1-yl)propyl]-2-{(3-methoxypropanoyl)[2-(2-oxo-1,3-oxazolidin-3-yl)ethyl]amino}-1,3-thiazole-5-carboxamide] | 2610 | 0.633 |
| COCCCN1CCN(CC(=O)N(Cc2ccc(F)cc2)c2ncc(C(=O)NCCCn3ccnc3)s2)CC1 [Example 38, 2-[(4-fluorobenzyl){[4-(3-methoxypropyl)piperazin-1-yl]acetyl}amino]-N-[3-(1H-imidazol-1-yl)propyl]-1,3-thiazole-5-carboxamide] | 2690 | 1.35 |
| COCCC(=O)N(Cc1ccc(Cl)cn1)c1ncc(C(=O)NCCCn2ccnc2)s1 [Example 96, 2-{[(5-chloropyridin-2-yl)methyl](3-methoxypropanoyl)amino}-N-[3-(1H-imidazol-1-yl)propyl]-1,3-thiazole-5-carboxamide] | 4190 | 3.35 |
| O=C(NCCCn1ccnc1)c1cnc(N(Cc2ccc(F)cc2)C(=O)CN2CCC3(C2)OCCO3)s1 [Example 43, 2-[(1,4-dioxa-7-azaspiro[4.4]non-7-ylacetyl)(4-fluorobenzyl)amino]-N-[3-(1H-imidazol-1-yl)propyl]-1,3-thiazole-5-carboxamide] | 8110 | 0.709 |
| CN(Cc1ccc(-c2cccnc2)cc1)c1ncc(C(=O)NCCCn2ccnc2)s1 [Example 2, N-[3-(1H-imidazol-1-yl)propyl]-2-{methyl[4-(pyridin-3-yl)benzyl]amino}-1,3-thiazole-5-carboxamide] | 7560 | 4.29 |
| COCCN(C(=O)Cc1ccc2ccccc2c1)c1ncc(C(=O)NCCCn2ccnc2)s1 [Example 185, N-[3-(1H-imidazol-1-yl)propyl]-2-[(2-methoxyethyl)(naphthalen-2-ylacetyl)amino]-1,3-thiazole-5-carboxamide] | 633 | 0.476 |
| COCCC(=O)N(CCCNC(C)=O)c1ncc(C(=O)NCCCn2ccnc2)s1 [Example 201, 2-{[3-(acetylamino)propyl](3-methoxypropanoyl)amino}-N-[3-(1H-imidazol-1-yl)propyl]-1,3-thiazole-5-carboxamide] | > 10000 | 0.457 |
| COCCC(=O)N(CCc1ccccc1F)c1ncc(C(=O)NCCCn2ccnc2)s1 [Example 108, 2-{[2-(2-fluorophenyl)ethyl](3-methoxypropanoyl)amino}-N-[3-(1H-imidazol-1-yl)propyl]-1,3-thiazole-5-carboxamide acetate (1:1)] | 1450 | 1.61 |
| O=C(NCCCn1ccnc1)c1cnc(N(Cc2ccc(F)cc2)C(=O)c2ccc(F)cc2)s1 [Example 13, 2-[(4-fluorobenzoyl)(4-fluorobenzyl)amino]-N-[3-(1H-imidazol-1-yl)propyl]-1,3-thiazole-5-carboxamide] | 1750 | 0.403 |
| COCCC(=O)N(CCC(=O)N1CCCC1)c1ncc(C(=O)NCCCn2ccnc2)s1 [Example 195, N-[3-(1H-imidazol-1-yl)propyl]-2-{(3-methoxypropanoyl)[3-oxo-3-(pyrrolidin-1-yl)propyl]amino}-1,3-thiazole-5-carboxamide] | > 10000 | 0.338 |
| COCCC(=O)N(Cc1c(F)cccc1F)c1ncc(C(=O)NCCCn2ccnc2)s1 [Example 112, 2-[(2,6-difluorobenzyl)(3-methoxypropanoyl)amino]-N-[3-(1H-imidazol-1-yl)propyl]-1,3-thiazole-5-carboxamide] | 3680 | 2.08 |
| COCCC(=O)N(Cc1cnccc1C)c1ncc(C(=O)NCCCn2ccnc2)s1 [Example 97, N-[3-(1H-imidazol-1-yl)propyl]-2-{(3-methoxypropanoyl)[(4-methylpyridin-3-yl)methyl]amino}-1,3-thiazole-5-carboxamide] | > 10000 | 5.89 |
| COCCCN(C(=O)CCOC)c1ncc(C(=O)NCCCn2ccnc2)s1 [Example 176, N-[3-(1H-imidazol-1-yl)propyl]-2-[(3-methoxypropanoyl)(3-methoxypropyl)amino]-1,3-thiazole-5-carboxamide] | 7360 | 0.365 |
| Cc1cn(CCCNC(=O)c2cnc(N(Cc3ccc(F)cc3)C(=O)CC(C)C)s2)cn1 [Example 54, 2-[(4-fluorobenzyl)(3-methylbutanoyl)amino]-N-[3-(4-methyl-1H-imidazol-1-yl)propyl]-1,3-thiazole-5-carboxamide] | 2110 | 5.6 |
| C=CCN(CC=C)CCN(C(=O)CCOC)c1ncc(C(=O)NCCCn2ccnc2)s1 [Example 189, 2-[{2-[di(prop-2-en-1-yl)amino]ethyl}(3-methoxypropanoyl)amino]-N-[3-(1H-imidazol-1-yl)propyl]-1,3-thiazole-5-carboxamide] | 4700 | 0.586 |

Now from value to compound:

| IC50 [1] [nM] | IC50 [2] [nM] | Compound |
| --- | --- | --- |
| 2590 | 0.264 | COCCN(C(=O)CCc1ccc(F)cc1)c1ncc(C(=O)NCCCn2ccnc2)s1 [Example 182, 2-{[3-(4-fluorophenyl)propanoyl](2-methoxyethyl)amino}-N-[3-(1H-imidazol-1-yl)propyl]-1,3-thiazole-5-carboxamide] |
| 2260 | 1.26 | CC(C)OCCNC(=O)N(Cc1ccc(F)cc1)c1ncc(C(=O)NCCCn2ccnc2)s1 [Example 87, 2-[(4-fluorobenzyl){[2-(propan-2-yloxy)ethyl]carbamoyl}amino]-N-[3-(1H-imidazol-1-yl)propyl]-1,3-thiazole-5-carboxamide] |
| 9520 | 2.2 | CC(C)NC(=O)N(Cc1ccc(F)cc1)c1ncc(C(=O)NCCCn2ccnc2)s1 [Example 46, 2-[(4-fluorobenzyl)(propan-2-ylcarbamoyl)amino]-N-[3-(1H-imidazol-1-yl)propyl]-1,3-thiazole-5-carboxamide] |
| > 10000 | 24.6 | O=C(NCCCn1ccnc1)c1cnc(N(Cc2ccc(F)cc2)C(=O)CN2CCN(CCO)CC2)s1 [Example 42, 2-[(4-fluorobenzyl){[4-(2-hydroxyethyl)piperazin-1-yl]acetyl}amino]-N-[3-(1H-imidazol-1-yl)propyl]-1,3-thiazole-5-carboxamide] |
| 1690 | 1.07 | N#Cc1ccc(CCN(C(=O)CC2CCOCC2)c2ncc(C(=O)NCCCn3ccnc3)s2)cc1 [Example 49, 2-{[2-(4-cyanophenyl)ethyl](tetrahydro-2H-pyran-4-ylacetyl)amino}-N-[3-(1H-imidazol-1-yl)propyl]-1,3-thiazole-5-carboxamide] |
| 6040 | 16.9 | CN(C)C(=O)CCNC(=O)N(Cc1ccc(C#N)cc1)c1ncc(C(=O)NCCCn2ccnc2)s1 [Example 142, 2-[(4-cyanobenzyl){[3-(dimethylamino)-3-oxopropyl]carbamoyl}amino]-N-[3-(1H-imidazol-1-yl)propyl]-1,3-thiazole-5-carboxamide] |
| > 10000 | 4.68 | COC1CCN(C(=O)N(Cc2ccc(F)cc2)c2ncc(C(=O)NCCCn3ccnc3)s2)C1 (stereo not shown) [Example 68, 2-{(4-fluorobenzyl)[(3-methoxypyrrolidin-1-yl)carbonyl]amino}-N-[3-(1H-imidazol-1-yl)propyl]-1,3-thiazole-5-carboxamide] |
| > 10000 | 71.9 | CC(C)C(=O)NCCNC(=O)N(Cc1ccc(C#N)cc1)c1ncc(C(=O)NCCCn2ccnc2)s1 [Example 147, 2-[(4-cyanobenzyl)({2-[(2-methylpropanoyl)amino]ethyl}carbamoyl)amino]-N-[3-(1H-imidazol-1-yl)propyl]-1,3-thiazole-5-carboxamide] |
| 340 | 99.1 | CCOC(=O)C(C)CNC(=O)N(Cc1ccc(C#N)cc1)c1ncc(C(=O)NCCCn2ccnc2)s1 (stereo not shown) [Example 165, ethyl 3-{[(4-cyanobenzyl)(5-{[3-(1H-imidazol-1-yl)propyl]carbamoyl}-1,3-thiazol-2-yl)carbamoyl]amino}-2-methylpropanoate] |
| 4570 | 1.89 | COCCC(=O)N(Cc1ccccc1C)c1ncc(C(=O)NCCCn2ccnc2)s1 [Example 119, N-[3-(1H-imidazol-1-yl)propyl]-2-[(3-methoxypropanoyl)(2-methylbenzyl)amino]-1,3-thiazole-5-carboxamide] |
| > 10000 | 98 | CCN(CC)CCNC(=O)N(Cc1ccc(C#N)cc1)c1ncc(C(=O)NCCCn2ccnc2)s1 [Example 146, 2-[(4-cyanobenzyl){[2-(diethylamino)ethyl]carbamoyl}amino]-N-[3-(1H-imidazol-1-yl)propyl]-1,3-thiazole-5-carboxamide] |
